Data published in patent EP3383875B1, “3-PYRIMIDINYL PYRROLO [2,3-B] PYRIDINE AS ANTICANCER AGENTS AND THE PROCESS FOR THE PREPARATION THEREOF” (Council Of Scientific & Industrial Research, priority 2015, dated 2017).
Like-named read-outs stand apart in the source and are kept apart here.

Columns and labels:
[1] = tested on: MDA-MB435; assay: MTT assay on cancer cell line MDA-MB435; assay type: cell-based, Human; details: Homo sapiens, MDA-MB-435; MDA-MB435; at 10µM; Table 9 (for reference); read-out: In vitro cell inhibition, % of inhibition, MDA-MB435
Procedure: (§1) Cell culture, growth conditions and treatments. […] Different molecules were dissolved in DMSO and were delivered to cell cultures in complete medium.

[2] = tested on: MCF-7; assay: MTT assay on cancer cell line MCF-7; assay type: cell-based, Human; details: Homo sapiens
Procedure: as §1

[3] = tested on: HCT-116; assay: MTT assay on cancer cell line HCT-116; assay type: cell-based, human; details: Homo sapiens, at 10µM, Table 9 (for reference), read-out: In vitro cell inhibition, % of inhibition, HCT-116
Procedure: as §1

[4] = tested on: SHSY-5Y; assay: MTT assay on cancer cell line SHSY-5Y; assay type: cell-based, human; details: Homo sapiens, SH-SY5Y
Procedure: as §1

[5] = tested on: PC-3; assay: MTT assay on cancer cell line PC-3; assay type: cell-based, human; details: Homo sapiens, Table 9 (for reference), read-out: In vitro cell inhibition, % of inhibition, PC-3
Procedure: as §1

[6] = target: CDK-2/cyclin A (Homo sapiens, UniProt P24941); assay: CDK inhibition assay, CDK-2/cyclin A against Histone HI, 33P-ATP; assay type: biochemical
Procedure: Compounds were evaluated for their ability to inhibit CDK2 and CDK9 as given below.
CDK-2/cyclin A (5-20 mU diluted in 50 mM Hepes pH 7.5, 1 mM DTT, 0.02% Brij35, 100 mM NaCl) was assayed against Histone HI in a final volume of 25.5 µl containing 50 mM Hepes pH7.5, 1 mM DTT, 0.02% Brij35, 100 mM NaCl, Histone HI (1 mg/ml), 10 mM magnesium acetate and 0.02 mM [33P-g-ATP](500-1000 cpm/pmole) and incubated for 30 min at room temperature. Assays were stopped by addition of 5 µl of 0.5 M (3%) orthophosphoric acid and then harvested onto P81 Unifilter plates with a wash buffer of 50 mM orthophosphoric acid.

[7] = target: CDK-9/Cyclin T1 (Homo sapiens, UniProt P50750); assay: CDK inhibition assay, CDK-9/Cyclin T1 against substrate peptide, 33P-ATP; assay type: biochemical
Chain of CDK-9/Cyclin T1 (P50750 whole entry): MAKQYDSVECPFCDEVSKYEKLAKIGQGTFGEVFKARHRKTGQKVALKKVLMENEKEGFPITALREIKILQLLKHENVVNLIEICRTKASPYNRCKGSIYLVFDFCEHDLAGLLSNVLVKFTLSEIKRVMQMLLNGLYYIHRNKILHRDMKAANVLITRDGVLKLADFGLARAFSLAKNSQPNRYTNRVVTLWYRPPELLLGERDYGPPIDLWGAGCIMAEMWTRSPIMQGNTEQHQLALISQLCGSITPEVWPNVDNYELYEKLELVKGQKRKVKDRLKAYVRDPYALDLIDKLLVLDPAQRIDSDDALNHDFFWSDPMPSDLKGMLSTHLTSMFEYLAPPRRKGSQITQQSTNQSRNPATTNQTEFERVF
Chain of CDK-9/Cyclin T1 (O60563 whole entry partner): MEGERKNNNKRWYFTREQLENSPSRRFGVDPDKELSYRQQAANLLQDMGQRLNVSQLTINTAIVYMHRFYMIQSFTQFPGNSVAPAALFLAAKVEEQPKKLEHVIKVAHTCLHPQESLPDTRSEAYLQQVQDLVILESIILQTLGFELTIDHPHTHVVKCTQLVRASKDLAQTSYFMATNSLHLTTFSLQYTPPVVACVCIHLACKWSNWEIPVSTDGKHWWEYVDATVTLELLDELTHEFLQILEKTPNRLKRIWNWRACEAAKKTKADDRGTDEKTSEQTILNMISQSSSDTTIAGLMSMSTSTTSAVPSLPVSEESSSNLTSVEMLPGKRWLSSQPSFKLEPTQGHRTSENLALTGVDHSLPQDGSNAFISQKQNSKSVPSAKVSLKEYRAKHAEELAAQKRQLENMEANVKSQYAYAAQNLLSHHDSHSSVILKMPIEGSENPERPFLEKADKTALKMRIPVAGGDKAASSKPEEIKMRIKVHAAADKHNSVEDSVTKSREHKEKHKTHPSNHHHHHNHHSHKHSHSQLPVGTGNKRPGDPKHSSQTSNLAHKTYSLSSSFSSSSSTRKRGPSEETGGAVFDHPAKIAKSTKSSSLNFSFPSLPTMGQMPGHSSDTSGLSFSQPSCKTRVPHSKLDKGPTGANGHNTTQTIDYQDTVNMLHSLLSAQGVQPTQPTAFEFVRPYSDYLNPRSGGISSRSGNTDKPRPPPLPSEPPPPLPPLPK
Procedure: (50-1000 cpm/pmole) and incubated for 30 min at room temperature. Assays were stopped by addition of 5 µl of 0.5 M (3%) orthophosphoric acid and then harvested onto P81 Unifilter plates with a wash buffer of 50 mM orthophosphoric acid.

[8] = MCF7, MCF-7, Table 9 (for reference), read-out: In vitro cell inhibition, % of inhibition, MCF-7
[9] = MCF7, read-out: inhibition against MCF-7 cell lines
[10] = SHSY-5Y, Table 9 (for reference), read-out: In vitro cell inhibition, % of inhibition, SHSY-5Y
[11] = read-out: inhibition against SHSY-5Y cell lines
[12] = at 500 nM, Table-7, read-out: In vitro CDK2 % of inhibition
[13] = at 500 nM, read-out: inhibition against CDK2
[14] = at 500 nM, Table-7, read-out: In vitro CDK9 % of inhibition
[15] = at 500 nM, read-out: inhibition against CDK9
[16] = at 500 nM, Table-6, read-out: In vitro CDK2 % of inhibition
[17] = at 500 nM, Table-6, read-out: In vitro CDK9 % of inhibition

| Compound | inhibition at 0.5 µM [6, 13] [%] | inhibition at 0.5 µM [7, 15] [%] | inhibition at 0.5 µM [6, 16] [%] | inhibition at 0.5 µM [7, 17] [%] | inhibition at 10 µM [1] [%] | inhibition at 10 µM [2, 8] [%] | inhibition at 10 µM [2, 9] [%] | inhibition at 10 µM [3] [%] | inhibition at 10 µM [4, 10] [%] | inhibition at 10 µM [5] [%] | other results |
| --- | --- | --- | --- | --- | --- | --- | --- | --- | --- | --- | --- |
| Nc1nccc(-c2c[nH]c3ncc(-c4ccc(C=O)cc4)cc23)n1 [1C13, 4-(3-(2-aminopyrimidin-4-yl)-1H-pyrrolo[2,3-b]pyridin-5-yl)benzaldehyde] | – | – | – | – | > 50 | > 50 | > 50 | > 50 | > 50 | > 50 | – |
| COc1ccc(-c2cnc3[nH]cc(-c4ccnc(N)n4)c3c2)cc1 [1C11, 4-(5-(4-methoxyphenyl)-1H-pyrrolo[2,3-b]pyridin-3-yl)pyrimidin-2-amine] | – | – | – | – | > 70 | > 50 | > 50 | > 70 | > 70 | < 50 | inhibition at 10 µM [4, 11]: > 70% |
| CSc1ccc(-c2cnc3[nH]cc(-c4ccnc(N)n4)c3c2)cc1 [1C8, 4-(5-(4-(methylthio)phenyl)-1H-pyrrolo[2,3-b]pyridin-3-yl)pyrimidin-2-amine] | – | – | – | – | > 70 | > 50 | > 50 | > 70 | > 50 | < 50 | – |
| Nc1nccc(-c2c[nH]c3ncc(-c4nccc5ccccc45)cc23)n1 [1C20, 4-(5-(isoquinolin-1-yl)-1H-pyrrolo[2,3-b]pyridin-3-yl)pyrimidin-2-amine] | – | – | – | – | > 50 | > 50 | > 50 | > 70 | > 50 | > 50 | – |
| Nc1nccc(-c2c[nH]c3ncc(-c4ccoc4)cc23)n1 [1C16, 4-(5-(furan-3-yl)-1H-pyrrolo[2,3-b]pyridin-3-yl)pyrimidin-2-amine] | – | – | – | – | > 70 | > 70 | > 70 | > 70 | > 70 | < 50 | inhibition at 10 µM [4, 11]: > 70% |
| Nc1nccc(-c2c[nH]c3ncc(-c4ccc(Cl)cc4)cc23)n1 [1C12, 4-(5-(4-chlorophenyl)-1H-pyrrolo[2,3-b]pyridin-3-yl)pyrimidin-2-amine] | – | – | – | – | > 70 | > 70 | > 70 | > 70 | > 70 | > 70 | inhibition at 10 µM [4, 11]: > 70% |
| Nc1nccc(-c2c[nH]c3ncc(-c4cccnc4)cc23)n1 [1C15, 4-(5-(pyridin-3-yl)-1H-pyrrolo[2,3-b]pyridin-3-yl)pyrimidin-2-amine] | – | – | – | – | > 70 | > 70 | > 70 | > 50 | > 70 | < 50 | inhibition at 10 µM [4, 11]: > 70% |
| Nc1nccc(-c2c[nH]c3ncc(-c4cc5ccccc5s4)cc23)n1 [1C18, 4-(5-(benzo[b]thiophen-2-yl)-1H-pyrrolo[2,3-b]pyridin-3-yl)pyrimidin-2-amine] | – | – | – | – | < 50 | > 70 | – | > 70 | > 70 | > 70 | inhibition at 10 µM [4, 11]: > 70% |
| c1ccc(CCNc2nccc(-c3c[nH]c4ncc(-c5ccoc5)cc34)n2)cc1 [1B16, 4-(5-(furan-3-yl)-1H-pyrrolo[2,3-b]pyridin-3-yl)-N-phenethylpyrimidin-2-amine] | – | – | – | – | – | – | – | – | – | – | inhibition at 0.5 µM [6, 12]: > 70%; inhibition at 0.5 µM ([6]; read-out: inhibition against CDK2): > 70%; inhibition at 0.5 µM ([7]; read-out: In vitro CDK9 % of inhibition): > 70%; inhibition at 0.5 µM ([7]; read-out: inhibition against CDK9): > 70% |
| FC(F)(F)c1ccc(-c2cnc3[nH]cc(-c4ccnc(NC5CCCC5)n4)c3c2)cc1 [1A21, N-cyclopentyl-4-(5-(4-(trifluoromethyl)phenyl)-1H-pyrrolo[2,3-b]pyridin-3-yl)pyrimidin-2-amine] | – | – | < 50 | < 50 | – | – | – | – | – | – | – |

The next lines start with results.

| inhibition at 0.5 µM [6, 13] [%] | inhibition at 0.5 µM [7, 15] [%] | inhibition at 0.5 µM [6, 16] [%] | inhibition at 0.5 µM [7, 17] [%] | Compound | inhibition at 10 µM [1] [%] | inhibition at 10 µM [2, 8] [%] | inhibition at 10 µM [2, 9] [%] | inhibition at 10 µM [3] [%] | inhibition at 10 µM [4, 10] [%] | inhibition at 10 µM [5] [%] | other results |
| --- | --- | --- | --- | --- | --- | --- | --- | --- | --- | --- | --- |
| > 70 | > 70 | – | – | CCc1ccccc1-c1cnc2[nH]cc(-c3ccnc(NC4CCCCCC4)n3)c2c1 [1A50, N-cycloheptyl-4-(5-(2-ethylphenyl)-1H-pyrrolo[2,3-b]pyridin-3-yl)pyrimidin-2-amine] | – | – | – | – | – | – | inhibition at 0.5 µM [6, 12]: > 70%; inhibition at 0.5 µM [7, 14]: > 70% |
| > 50 | > 50 | – | – | CSc1ccc(-c2cnc3[nH]cc(-c4ccnc(NCCc5ccccc5)n4)c3c2)cc1 [1B8, 4-(5-(4-(methylthio)phenyl)-1H-pyrrolo[2,3-b]pyridin-3-yl)-N-phenethylpyrimidin-2-amine] | – | – | – | – | – | – | inhibition at 0.5 µM [6, 12]: > 50%; inhibition at 0.5 µM [7, 14]: > 50% |
| > 70 | > 70 | > 70 | > 70 | CSc1ccccc1-c1cnc2[nH]cc(-c3ccnc(NC4CCCC4)n3)c2c1 [1A29, N-cyclopentyl-4-(5-(2-(methylthio)phenyl)-1H-pyrrolo[2,3-b]pyridin-3-yl)pyrimidin-2-amine] | – | – | – | – | – | – | – |
| – | – | > 70 | > 50 | O=Cc1ccc(-c2cnc3[nH]cc(-c4ccnc(NC5CCCC5)n4)c3c2)cc1 [1A33, 4-(3-(2-(cyclopentylamino)pyrimidin-4-yl)-1H-pyrrolo[2,3-b]pyridin-5-yl)benzaldehyde] | – | – | – | – | – | – | – |
| > 70 | > 70 | – | – | O=Cc1ccc(-c2cnc3[nH]cc(-c4ccnc(NC5CCCCCC5)n4)c3c2)cc1 [1A53, 4-(3-(2-(cycloheptylamino)pyrimidin-4-yl)-1H-pyrrolo[2,3-b]pyridin-5-yl)benzaldehyde] | – | – | – | – | – | – | inhibition at 0.5 µM [6, 12]: > 70%; inhibition at 0.5 µM [7, 14]: > 70% |
| – | – | > 70 | – | CN1CC[C@H](c2c(O)cc(O)c3c(=O)cc(-c4ccccc4Cl)oc23)[C@H](O)C1 [Flavopyr idol, flavopiridol, reference compound] | – | – | – | – | – | – | inhibition at 0.5 µM ([7]; read-out: In vitro CDK9 % of inhibition, at 500 nM, Table-6): > 70% |
| – | – | > 50 | > 50 | c1ccc2c(-c3cnc4[nH]cc(-c5ccnc(NC6CCCC6)n5)c4c3)cccc2c1 [1A34, N-cyclopentyl-4-(5-(naphthalen-1-yl)-1H-pyrrolo[2,3-b]pyridin-3-yl)pyrimidin-2-amine] | – | – | – | – | – | – | – |
| > 50 | > 50 | > 50 | > 50 | Cc1cccc(-c2cnc3[nH]cc(-c4ccnc(NC5CCCCCC5)n4)c3c2)c1 [1A47, N-cycloheptyl-4-(5-(m-tolyl)-1H-pyrrolo[2,3-b]pyridin-3-yl)pyrimidin-2-amine] | – | – | – | – | – | – | – |
| > 50 | > 50 | > 50 | > 50 | c1ccc2sc(-c3cnc4[nH]cc(-c5ccnc(NC6CCCC6)n5)c4c3)cc2c1 [1A38, 4-(5-(benzo[b]thiophen-2-yl)-1H-pyrrolo[2,3-b]pyridin-3-yl)-N-cyclopentylpyrimidin-2-amine] | – | – | – | – | – | – | – |
| > 50 | > 50 | > 50 | > 50 | Cc1ccc(-c2cnc3[nH]cc(-c4ccnc(NC5CCCCCC5)n4)c3c2)cc1 [1A46, N-cycloheptyl-4-(5-(p-tolyl)-1H-pyrrolo[2,3-b]pyridin-3-yl)pyrimidin-2-amine] | – | – | – | – | – | – | – |
| > 70 | > 70 | – | – | Clc1ccc(-c2cnc3[nH]cc(-c4ccnc(NC5CCCCCC5)n4)c3c2)cc1 [1A52, 4-(5-(4-chlorophenyl)-1H-pyrrolo[2,3-b]pyridin-3-yl)-N-cycloheptylpyrimidin-2-amine] | – | – | – | – | – | – | inhibition at 0.5 µM [6, 12]: > 70%; inhibition at 0.5 µM [7, 14]: > 70% |
